Measured values: PubChem BioAssay AID623893 (Vanderbilt Specialized Chemistry Center, 2012)
Activity calls are given as the source filed them.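 The calls were made as follows: active = fold change in agonist EC50 with compound of 2 or more, a potentiator, or 0.5 or less, a blocker; inactive = fold change strictly between 0.5 and 2.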

Target: Metabotropic glutamate receptor 7 (Rattus norvegicus) (UniProt P35400)
Assay: off-target activity at rat mGlu7, profiling panel, selectivity assay for mGlu4 lead optimization, cell-based, thallium flux, L-AP4 agonist (AID 623893)
Settings: mGlu7 cells, at 10 µM

Chain of Metabotropic glutamate receptor 7 (Rattus norvegicus) (P35400 whole entry, looked up): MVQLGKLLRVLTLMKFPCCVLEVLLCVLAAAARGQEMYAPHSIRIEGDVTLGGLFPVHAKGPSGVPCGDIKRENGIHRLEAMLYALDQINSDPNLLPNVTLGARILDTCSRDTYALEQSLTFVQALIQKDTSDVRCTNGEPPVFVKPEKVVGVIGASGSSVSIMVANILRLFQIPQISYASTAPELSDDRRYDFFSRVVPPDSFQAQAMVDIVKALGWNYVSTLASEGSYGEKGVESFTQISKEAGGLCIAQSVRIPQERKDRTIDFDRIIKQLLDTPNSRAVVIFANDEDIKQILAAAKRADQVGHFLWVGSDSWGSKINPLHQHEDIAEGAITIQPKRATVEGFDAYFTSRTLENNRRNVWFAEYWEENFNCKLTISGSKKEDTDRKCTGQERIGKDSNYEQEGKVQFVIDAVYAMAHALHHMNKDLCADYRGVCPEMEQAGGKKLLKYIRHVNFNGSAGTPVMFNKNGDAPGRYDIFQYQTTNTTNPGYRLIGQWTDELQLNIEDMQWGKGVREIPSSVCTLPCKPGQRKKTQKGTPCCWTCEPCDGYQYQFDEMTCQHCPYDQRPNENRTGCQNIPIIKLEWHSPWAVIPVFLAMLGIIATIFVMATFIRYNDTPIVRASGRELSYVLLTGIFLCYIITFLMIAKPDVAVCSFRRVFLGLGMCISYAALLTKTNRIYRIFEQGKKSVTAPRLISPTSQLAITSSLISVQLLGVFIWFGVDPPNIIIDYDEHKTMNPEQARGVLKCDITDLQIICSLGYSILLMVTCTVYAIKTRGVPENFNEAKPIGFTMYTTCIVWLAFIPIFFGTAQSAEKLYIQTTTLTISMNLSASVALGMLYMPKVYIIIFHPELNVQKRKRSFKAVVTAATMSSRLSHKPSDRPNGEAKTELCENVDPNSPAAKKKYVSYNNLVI

fold shift: 1.44 (inactive)
Compound: O=C(Nc1cccc(Cl)c1)c1ccccn1
